Test results reported in PMC4013825 (Journal of biomolecular screening, 2014).

Tests used:
[1] = molecular target: T1, SERCA2a (sarco/endoplasmic reticulum calcium ATPase) (Canis lupus, UniProt O46674); experiment: live-cell intramolecular FRET lifetime dose-response; format: cell-based
[2] = molecular target: T1, SERCA2a (sarco/endoplasmic reticulum calcium ATPase); experiment: as above; format: cell-based; remark: listed apart in the source

T1 sequence (O46674 whole entry): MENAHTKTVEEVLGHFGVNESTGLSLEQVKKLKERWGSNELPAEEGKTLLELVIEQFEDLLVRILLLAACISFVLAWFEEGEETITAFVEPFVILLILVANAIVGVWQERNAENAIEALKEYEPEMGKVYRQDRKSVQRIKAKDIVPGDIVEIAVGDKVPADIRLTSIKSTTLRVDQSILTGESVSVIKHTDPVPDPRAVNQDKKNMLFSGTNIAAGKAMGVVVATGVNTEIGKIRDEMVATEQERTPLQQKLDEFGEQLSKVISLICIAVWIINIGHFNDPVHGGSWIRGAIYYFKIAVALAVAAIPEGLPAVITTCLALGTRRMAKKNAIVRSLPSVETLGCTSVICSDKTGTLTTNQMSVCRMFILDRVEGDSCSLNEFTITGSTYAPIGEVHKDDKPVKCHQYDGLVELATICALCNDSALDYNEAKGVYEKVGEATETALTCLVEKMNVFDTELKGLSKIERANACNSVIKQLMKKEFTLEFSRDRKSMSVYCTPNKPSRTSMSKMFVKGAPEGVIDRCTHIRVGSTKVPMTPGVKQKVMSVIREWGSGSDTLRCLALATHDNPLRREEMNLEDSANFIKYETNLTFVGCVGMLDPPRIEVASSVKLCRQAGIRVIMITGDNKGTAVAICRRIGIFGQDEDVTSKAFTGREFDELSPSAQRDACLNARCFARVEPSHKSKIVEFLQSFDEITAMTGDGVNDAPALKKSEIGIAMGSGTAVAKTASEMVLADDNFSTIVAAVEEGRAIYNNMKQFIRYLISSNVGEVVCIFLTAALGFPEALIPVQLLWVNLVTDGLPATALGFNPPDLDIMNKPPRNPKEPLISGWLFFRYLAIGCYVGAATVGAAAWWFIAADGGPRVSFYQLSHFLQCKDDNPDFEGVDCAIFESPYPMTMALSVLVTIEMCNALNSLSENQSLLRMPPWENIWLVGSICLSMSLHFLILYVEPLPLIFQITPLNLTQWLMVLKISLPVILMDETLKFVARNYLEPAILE

Which Kd [1] does the source give for `CC(=O)C1=C(O)[C@@H]2[C@H]3c4c[nH]c5cccc(c45)C[C@H]3C(C)(C)N2C1=O` [CPA, cyclopiazonic acid] here?
Its Kd is about 40 nM.

For `C/C=C(/C)C(=O)O[C@H]1C(C)=C2[C@H]([C@@H]1OC(=O)CCCCCCC)[C@@](C)(OC(C)=O)C[C@H](OC(=O)CCC)[C@@]1(O)[C@H]2OC(=O)[C@@]1(C)O` [TG, thapsigargin], which “live-cell intramolecular FRET lifetime dose-response; ATPase inhibition in pig c” value [2] is on record?
The value was 7.5 nM.
